As a reminder, the IC50 is the concentration that gives 50% inhibition.

Values joined by “and” are separate entries in the source; they are usually repeats but may differ in a detail not shown here. Equal entries are not always repeated. Where only a bound is given, the exact number is not on record here.

Here are results for 35 compounds from patent US20080045535A1, “Prokineticin 2 receptor antagonists” (priority 2005, published 2008).

This experiment has as its target T1, HEK 293 GPR73 (prokineticin 1 receptor) expressing cells (Homo sapiens, UniProt Q8TCW9).
T1 construct: expressed in transfected cells; host or cells: HEK 293
As to the kind of experiment: PK1 functional assay: screening for PK1 antagonists on the FLIPR (calcium fluorescence). The experiment is classed as cell-based. The following applies: HEK 293 GPR73 cells; for inhibition at 10 µM: HEK293, compound at 10 μM, read-out: Ca^2+ Mobilization % Inh @10 μM; for inhibition at 10 µM / Ca^2+ Mobilization % Inh @10 μM: multiple values = repeat tests; for IC50: PK1 ligand at EC50, multiple values = repeat tests, read-out: Ca^2+ Mobilization IC50; for Ca^2+ Mobilization % Inh @10 μM: compound at 10 μM. As to the method:
At a time of 24 h prior to running the assay, in cell culture media (DMEM containing high Glucose and L-glutamine, 10% FBS, 1% Pen/Streptomycin, 1% Sodium Pyruvate, 20 mM HEPES, Zeocin 200 mg/L), 100 μL of 1.3*10^6/ml HEK 293 GPR73 (prokineticin 1 receptor) expressing cells were plated in a 96 well poly-d-lysine coated plate (Costar), and incubated at 37 C and 5% CO2. On the day in which the assay was run, the media was removed and 200 μL of 5× Calcium Plus Dye (Molecular Devices) which was previously resuspended with 200 mL of assay buffer [HBSS w/Ca^2+ and Mg^2+ w/o phenol red, 20 mM HEPES, 0.1% BSA, 10 mL probenecid (710 mg probenecid in 5 mL of 1N NaOH, to which was then added 5 mL HBSS containing 20 mM HEPES)] was added to each well of the 96-well plate. The plate was incubated at 37 C and 5% CO2 for 30 min in dark. The plate was removed and allowed to reach RT for 15 min in the dark. The assay was then run on the FLIPR. […] Baseline is described as the amount of relative fluorescence read when buffer alone is added to cells. Baseline was subtracted from all wells. Percent of control was calculated as follows:
(Baseline subtracted well value is divided by baseline subtracted max value)*100.
Percent inhibition is 100 minus the percent of control value.
IC50 values were calculated using GraphPad Prism.
Table 2 includes data generated from the PK1 functional assay described in Example 2.

T1 sequence (Q8TCW9 whole entry): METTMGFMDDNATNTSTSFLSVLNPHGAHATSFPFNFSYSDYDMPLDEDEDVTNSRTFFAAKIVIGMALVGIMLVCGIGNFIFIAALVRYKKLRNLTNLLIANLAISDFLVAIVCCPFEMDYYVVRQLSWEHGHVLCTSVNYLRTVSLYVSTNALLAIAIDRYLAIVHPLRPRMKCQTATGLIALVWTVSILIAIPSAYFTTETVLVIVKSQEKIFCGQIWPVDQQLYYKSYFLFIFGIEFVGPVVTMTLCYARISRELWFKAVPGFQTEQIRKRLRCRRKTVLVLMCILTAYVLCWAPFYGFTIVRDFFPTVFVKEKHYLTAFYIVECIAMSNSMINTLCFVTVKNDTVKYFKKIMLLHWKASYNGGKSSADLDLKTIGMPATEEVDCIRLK

Regarding `COc1ccc(Cn2c(N[C@@H]3CCCC[C@@H]3NC(=N)N)nc(=O)n(Cc3ccc(Cl)c(Cl)c3)c2=O)cc1` (racemic) [Cpd 42], the inhibition at 10 µM was 92% and the IC50 worked out at 281 nM.

For the compound `NC(N)=NCCNc1nc(=O)n(Cc2ccccc2)c(=O)n1Cc1ccc(F)cc1` [Cpd 1], the inhibition at 10 µM is 30% and the IC50 was above 10000 nM.

Turning to `COc1ccc(Cn2c(NCCNC(=N)N)nc(=O)n(Cc3ccccc3)c2=O)cc1` [Cpd 2], the inhibition at 10 µM is 92%; the IC50 is 125 nM and 363 nM and 336 nM and 927 nM. In addition, the “Ca^2+ Mobilization % Inh @10 μM” value (10 µM) is 85% and 74% and 87%.

With `COC(=O)c1ccc(Cn2c(NCCNC(=N)N)nc(=O)n(Cc3ccccc3)c2=O)cc1` [Cpd 3], the IC50 came out at 4960 nM and the “Ca^2+ Mobilization % Inh @10 μM” value came out at 52%.

Take `COc1ccc(Cn2c(NCCNC(=N)N)nc(=O)n(CCc3ccccc3)c2=O)cc1` [Cpd 4]: the inhibition at 10 µM was 71% and the IC50 stood at 2500 nM.

Consider `CCCCn1c(=O)nc(NCCNC(=N)N)n(Cc2ccc(OC)cc2)c1=O` [Cpd 5], for which the inhibition at 10 µM worked out at 67% and the IC50 was determined as 2180 nM.

Turning to `COc1ccc(Cn2c(NCCNC(=N)N)nc(=O)n(Cc3ccco3)c2=O)cc1` [Cpd 6], the inhibition at 10 µM was found to be 59% and the IC50 was determined as 2590 nM.

In the case of `N=C(N)NCCNc1nc(=O)n(Cc2ccccc2)c(=O)n1Cc1cccc(C(F)(F)F)c1` [Cpd 7], the inhibition at 10 µM is 52% and the IC50 was above 10000 nM.

With `CC(C)(C)c1ccc(Cn2c(NCCNC(=N)N)nc(=O)n(Cc3ccccc3)c2=O)cc1` [Cpd 8], the inhibition at 10 µM came to 64% and the IC50 amounted to 3850 nM.

For `N=C(N)NCCNc1nc(=O)n(Cc2ccccc2)c(=O)n1Cc1ccc([N+](=O)[O-])cc1` [Cpd 9], the IC50 was above 10000 nM and the “Ca^2+ Mobilization % Inh @10 μM” value is on record as 35%.

`COc1ccc(Cn2c(NCCONC(=N)N)nc(=O)n(Cc3ccccc3)c2=O)cc1` [Cpd 10]: the IC50 was above 10000 nM and the “Ca^2+ Mobilization % Inh @10 μM” value is 33%.

As to `N=C(N)NCCNc1nc(=O)n(Cc2ccccc2)c(=O)n1Cc1ccncc1` [Cpd 11], the inhibition at 10 µM worked out at 32% and the IC50 was above 10000 nM.

As for `CCOc1ccc(Cn2c(NCCNC(=N)N)nc(=O)n(Cc3ccccc3)c2=O)cc1` [Cpd 12], the inhibition at 10 µM worked out at 97%; the IC50 is 34 nM and 82 nM and 247 nM. The “Ca^2+ Mobilization % Inh @10 μM” value (10 µM) was 96% and 94% and 90%.

Turning to `N=C(N)NCCNc1nc(=O)n(Cc2ccccc2)c(=O)n1Cc1ccc(OC(F)F)cc1` [Cpd 13], the inhibition at 10 µM is 92%; the IC50 is 104 nM and 256 nM. Also, where the note is “10 µM”, the “Ca^2+ Mobilization % Inh @10 μM” value amounted to 91%.

As to `N=C(N)NCCNc1nc(=O)n(Cc2ccccc2)c(=O)n1Cc1ccc(C(F)(F)F)cc1` [Cpd 15], the inhibition at 10 µM came to 55% and the IC50 was 6110 nM.

With `COc1ccc(Cn2c(NCCNC(=N)N)nc(=O)n(Cc3ccccc3F)c2=O)cc1` [Cpd 16], the inhibition at 10 µM stood at 77% and the IC50 came to 836 nM.

As for `COc1ccc(Cn2c(NCCNC(=N)N)nc(=O)n(Cc3ccc(F)cc3)c2=O)cc1` [Cpd 17, N-{2-[5-(4-Fluoro-benzyl)-1-(4-methoxy-benzyl)-4,6-dioxo-1,4,5,6-tetrahydro-[1,3,5]triazin-2-ylamino]-ethyl}-guanidine], the inhibition at 10 µM stood at 100%; the IC50 was 14 nM and 33 nM and 87 nM. Besides, for the setting “10 µM”, the “Ca^2+ Mobilization % Inh @10 μM” value is 99% and 97%.

On to `COc1ccc(Cn2c(NCCNC(=N)N)nc(=O)n(Cc3ccc(Cl)c(Cl)c3)c2=O)cc1` [Cpd 18], for which the inhibition at 10 µM is 98%; the IC50 is 7 nM and 28 nM and 41 nM and 22 nM and 54 nM. In addition, the “Ca^2+ Mobilization % Inh @10 μM” value (10 µM) was 100% and 101% and 99%.

For the compound `N=C(N)NCCNc1nc(=O)n(Cc2ccccc2)c(=O)n1Cc1ccc(OC(F)(F)F)cc1` [Cpd 19], the inhibition at 10 µM came out at 81% and the IC50 was determined as 862 nM.

Consider `COc1ccc(Cn2c(NCCNC(=N)N)nc(=O)n(Cc3cccc(OC)c3)c2=O)cc1` [Cpd 20], for which the inhibition at 10 µM was determined as 61% and the IC50 came to 3690 nM.

Consider `COc1ccc(Cn2c(NCCNC(=N)N)nc(=O)n(Cc3ccccc3OC)c2=O)cc1` [Cpd 21], for which the inhibition at 10 µM amounted to 43% and the IC50 was above 10000 nM.

In the case of `N=C(N)NCCNc1nc(=O)n(Cc2ccccc2)c(=O)n1Cc1ccc(C(N)=O)cc1` [Cpd 22], the inhibition at 10 µM stood at 80% and the concentration for half-maximal inhibition (IC50) stood at 947 nM.

`CC(=O)Nc1ccc(Cn2c(NCCNC(=N)N)nc(=O)n(Cc3ccccc3)c2=O)cc1` [Cpd 23]: the inhibition at 10 µM stood at 74% and the IC50 came to 1250 nM.

For the compound `CCOc1ccc(Cn2c(NCCNC(=N)N)nc(=O)n(Cc3ccc(F)cc3)c2=O)cc1` [Cpd 24], the inhibition at 10 µM is 99% and the IC50 is 41 nM.

As for `COc1ccc(Cn2c(NCCNC(=N)NC#N)nc(=O)n(Cc3ccc(Cl)c(Cl)c3)c2=O)cc1` [Cpd 28, N-{2-[5-(3,4-Dichloro-benzyl)-1-(4-methoxy-benzyl)-4,6-dioxo-1,4,5,6-tetrahydro-[1,3,5]triazin-2-ylamino]-ethyl}-N′-cyano-guanidine], the inhibition at 10 µM came to 101% and the IC50 was 710 nM.

On to `CCOc1ccc(Cn2c(NCCNC(=N)N)nc(=O)n(Cc3ccc(Cl)c(Cl)c3)c2=O)cc1` [Cpd 29], for which the inhibition at 10 µM came out at 101%; the IC50 was 42 nM and 47 nM. In addition, where the note is “10 µM”, the “Ca^2+ Mobilization % Inh @10 μM” value turned out to be 102%.

In the case of `COc1ccc(Cn2c(NCCNC(=N)N)nc(=O)n(Cc3ccc(Cl)cc3)c2=O)cc1` [Cpd 30], the inhibition at 10 µM stood at 101%; the IC50 is 9 nM and 19 nM. For the same compound, under “10 µM”, the “Ca^2+ Mobilization % Inh @10 μM” value was found to be 103%.

In the case of `COc1ccc(Cn2c(NCCNC(=N)N)nc(=O)n(Cc3ccc(OC)cc3)c2=O)cc1` [Cpd 31], the inhibition at 10 µM was found to be 101%; the IC50 is 9 nM and 21 nM. For the same compound, the “Ca^2+ Mobilization % Inh @10 μM” value (10 µM) was found to be 102%.

In the case of `COc1ccc(Cn2c(NCCCCNC(=N)N)nc(=O)n(Cc3ccc(Cl)c(Cl)c3)c2=O)cc1` [Cpd 32], the inhibition at 10 µM was found to be 88%; the IC50 was 601 nM and 781 nM. In addition, the “Ca^2+ Mobilization % Inh @10 μM” value (10 µM) is 86%.

For `COc1ccc(CCn2c(NCCNC(=N)N)nc(=O)n(Cc3ccc(F)cc3)c2=O)cc1` [Cpd 33], the inhibition at 10 µM turned out to be 66% and the IC50 amounted to 2860 nM.

For `N=C(N)NCCNc1nc(=O)n(Cc2ccc(Cl)c(Cl)c2)c(=O)n1Cc1ccc(OC2CCCC2)cc1` [Cpd 36], the inhibition at 10 µM was 77% and the IC50 came to 1320 nM.

With `CSc1ccc(Cn2c(NCCNC(=N)N)nc(=O)n(Cc3ccc(Cl)c(Cl)c3)c2=O)cc1` [Cpd 37], the inhibition at 10 µM was found to be 98%; the IC50 is 38 nM and 201 nM and 326 nM. Besides, the “Ca^2+ Mobilization % Inh @10 μM” value (10 µM) is 100% and 98% and 99%.

On to `CCc1ccc(Cn2c(NCCNC(=N)N)nc(=O)n(Cc3ccc(Cl)c(Cl)c3)c2=O)cc1` [Cpd 38], for which the inhibition at 10 µM came to 98%; the IC50 was 55 nM and 178 nM and 194 nM. Besides, for the setting “10 µM”, the “Ca^2+ Mobilization % Inh @10 μM” value was 94% and 98%.

Take `COc1ccc(Cn2c(NCCNC(=N)N)nc(=O)n(Cc3cccc(Cl)c3)c2=O)cc1` [Cpd 39]: the inhibition at 10 µM came to 81% and the IC50 was found to be 909 nM.

For `N=C(N)NCCNc1nc(=O)n(Cc2ccc(Cl)c(Cl)c2)c(=O)n1Cc1ccc(OC(F)(F)F)cc1` [Cpd 40], the inhibition at 10 µM amounted to 98% and the IC50 came out at 248 nM.
